Reference: patent US10066272B2, “Human homeobox gene ventx and macrophage terminal differentiation and activation, compositions and methods thereof” (priority 2011, dated 2018)

How the values were obtained:
Type in all cases: cell-based, human
[1] = test system: VentX; experiment: VentX expression during cytokine-induced monocyte to macrophage differentiation (RT-PCR, western blot); conditions: monocytes cultured with cytokine at 100 ng/ml (FIG. 1B)
Procedure: (B) VentX expression during monocyte to macrophage differentiation in vitro. Monocytes were cultured in the presence of M-CSF (M), GM-CSF (GM) or IL3 for indicated days or in the absence of cytokines for 3 days. […] VentX expression in freshly isolated monocytes was used as baseline control (Day 0). […] (D) Time course of VentX expression during in vitro induction of monocytes differentiation into macrophages. Monocytes were subjected to M-CSF treatment in vitro for indicated time. The VentX mRNA levels were determined by quantitative PCR for up to 7 days.
Peripheral blood mononuclear cells (PBMC) from healthy adult donors at Children's Hospital Boston were isolated by Ficoll density gradient centrifugation. […] CD14^+ monocytes were purified from PBMCs using anti-CD14-coated microbeads (Miltenyi Biotec). The purity of freshly isolated CD14^+ monocytes was more than 95% as analyzed by flow cytometry. Monocytes were cultured in 12-well plates at 1×10^6 cells/ml with RPMI 1640 medium containing 10% fetal bovine serum (FBS). […]
Total RNA was isolated by the TRIzol reagent, and an equal amount of RNA was used for first-strand cDNA synthesis with SuperScript III First-Strand Synthesis System (Invitrogen) according to the manufacturer's protocol. […] Quantitative measurement of VentX and cytokines cDNA were performed with SYBR Green on a LightCycler® (480 Real-Time PCR System; Roche).

[2] = test system: cytokine mRNA expression in macrophages; experiment: Effects of VentX knockdown on cytokine mRNA expression in macrophages (real-time PCR); parameters: unit not given here; conditions: macrophages transfected with siRNA; classical activation by LPS plus IFN-γ
Procedure: Macrophages were generated through incubation of freshly isolated monocytes with 100 ng/mL M-CSF for 4 days. These macrophages were then transfected with siGFP or siVentX, respectively, and further cultured in RPMI 1640 medium for additional 3 days. Thereafter, cells were exposed to 1 μg/mL LPS plus 20 ng/mL γ-IFN for 6 hours. (A) Surface staining of CD40, CD80, CD86 and HLA-DR and intracellular staining of TNF-α and IL1-β were analyzed by flow cytometry. (B) Secreted TNF-α, IL1-β and IL12p70 from culture supernatants were determined with ELISA kits. (C) Reactive oxygen species (ROS) from siGFP or siVentX transfected macrophages were analyzed with fluorescence microscope (left) and flow cytometry (middle). […] (D) Nitrate level from siGFP and siVentX transfected macrophages. Data represent mean+SD of three different experiments. (E) Phagocytosis of siGFP and siVentX transfected macrophage. Red histogram represents transfection with siGFP; green histogram represents transfection with siVentX. Left panel: cells were incubated on ice; right panel: cells were incubated at 37° C. (F) Effects of VentX knockdown on mixed lymphocyte reaction. Irradiated macrophages that had been transfected with siGFP or siVentX were utilized to stimulate allogenic naïve CD4 T cells proliferation. The proliferation rates were represented by counts per minute (CPM). […] Statistically significant difference (p<0.05) was observed when 4×10^2 or 2×10^3 cells were added.
(Martinez, et al. 2008 Front Biosci 13:453-461; Mosser, et al. 2008 Nat Rev Immunol 8:958-969.) To investigate whether VentX is required for classical activation of macrophages, a loss-of-function approach by knockdown of VentX was used.
Human primary monocytes were transfected using the Human Monocyte Nucleofector Kit (Lonza) according to the manufacturer's instructions. Briefly, 5×10^6monocytes were resuspended into 100 μl nucleofector solution with 0.5 nmol of either VentX siRNA (forward: 5′-[…]-3′ (SEQ ID NO:4); reverse: 5′-[…]-3′ (SEQ ID NO:5)) or non-effective GFP siRNA (forward: 5′-[…]-3′ (SEQ ID NO:6); 5′-reverse: […]-3′ (SEQ ID NO:7)) before electroporation with nucleofector II Device (Lonza). Cells were then immediately removed from the device and incubated overnight with 1 ml pre-warmed Human Monocyte Nucleofector Medium containing 2 mM glutamine and 10% FBS. Cells were then resuspended into complete RPMI medium and treated with appropriate cytokines to induce differentiation into macrophages. Similarly, macrophages derived from monocytes were transfected with Human Macrophage Nucleofector Kit (Lonza) following the manufacturer's instructions.
Total RNA was isolated by the TRIzol reagent, and an equal amount of RNA was used for first-strand cDNA synthesis with SuperScript III First-Strand Synthesis System (Invitrogen) according to the manufacturer's protocol. To amplify VentX cDNA with conventional PCR, AccuPrime™ Taq DNA polymerase system (Invitrogen) was used following the manufacturer's instructions. PCR products were separated on 2% agarose gels and stained with ethidium bromide. GAPDH was used as an internal control. Quantitative measurement of VentX and cytokines cDNA were performed with SYBR Green on a LightCycler® (480 Real-Time PCR System; Roche). The primers used are listed in the Sequence Listing (SEQ ID NOs: 24-109).

[3] = test system: primary monocytes; experiment: Monocyte to macrophage differentiation after siRNA transfection, surface markers by FACS; conditions: monocytes, 100 ng/mL M-CSF, 4 days after transfection (FIG. 12)
Procedure: (A) knockdown of VentX expression in primary monocytes by RNA interference. Monocytes were transfected with siRNA against GFP or VentX through electroporation. VentX mRNA levels were determined by real time PCR at 3 days after transfection (left); VentX protein level was determined by western blotting at 4 days after transfection (right). (B) Effects of VentX knockdown on macrophage morphogenesis during M-CSF induced differentiation. Monocytes were transfected with either siGFP or siVentX and subsequently exposed to 100 ng/mL M-CSF. […] Magnification of photographs, ×200. Note: a portion of cells lost their original morphology during Wright-Giemsa staining procedure. (C) Effects of VentX knockdown on macrophage surface expression of CD71. […] Filled blue histogram represents the isotope control staining; red histogram represents monocytes transfected with siGFP; green histogram represents monocytes transfected with siVentX. (D) Bar graphs show mean+SD of 6 different experiments in (C). Paired t test was used to reveal the statistical significance. **p<0.01.
(A) Left panel: Flow cytometry analysis of indicated surface markers in monocytes transfected with siGFP or siVentX, respectively; right panel: bar graphs show the mean+SD of at least three separate experiments. *p<0.05; **p<0.01. (B) Effects of VentX knockdown on macrophage viability. Monocytes were transfected with either siGFP or siVentX and subsequently exposed to 100 ng/mL M-CSF for 3 days. Cells were then harvested and stained with PI and Annexin V and analyzed by flow cytometry. (C) Effects of VentX knockdown on phagocytosis. Monocytes were transfected with siGFP or siVentX. Phagocytosis assays were carried out as described in materials and methods. […]
Surface expression of CD71 was determined by FACS analysis at 4 days after siRNA transfection. […]
Peripheral blood mononuclear cells (PBMC) from healthy adult donors at Children's Hospital Boston were isolated by Ficoll density gradient centrifugation. […] The purity of freshly isolated CD14^+ monocytes was more than 95% as analyzed by flow cytometry. […]

Molecule: GM-CSF: granulocyte macrophage colony-stimulating factor, purchased from PeproTech
- VentX expression during monocyte to macrophage differentiation [1]: up-regulated

Molecule: siGFP: non-effective GFP siRNA, forward 5′-UGACCACCCUGACCUACGGCGUGCAGUGC-3′ (SEQ ID NO:6), reverse SEQ ID NO:7 (antisense GCACUGCACGCCGUAGGUCAGGGUGGUCA; listed as RNA, chemistry not given here) [reference compound]
- IL1-β cytokine mRNA expression [2]: 51.08 ± 3.2
- IL6 cytokine mRNA expression [2]: 3.40 ± 0.21
- IL8 cytokine mRNA expression [2]: 471 ± 10.2
- IL12p35 cytokine mRNA expression [2]: 1.77 ± 0.21
- IL12p40 cytokine mRNA expression [2]: 0.52 ± 0.02
- M-SCSF cytokine mRNA expression [2]: 0.40 ± 0.01
- TNF-α cytokine mRNA expression [2]: 0.46 ± 0.04

Molecule: VentX siRNA-2: second siRNA sequence against VentX, 5′-UCUACUCAACGUCUUCUGGCCUUGCCAAU-3′ (SEQ ID NO:3) (listed as RNA, chemistry not given here)
- surface expression of CD71 and other markers [3]: down-regulated

B1: M-CSF: macrophage colony-stimulating factor, purchased from PeproTech (protein, UniProt P09603 33-554, looked up)
Macrophage colony-stimulating …: EEVSEYCSHMIGSGHLQSLQRLIDSQMETSCQITFEFVDQEQLKDPVCYLKKAFLLVQDIMEDTMRFRDNTPNAIAIVQLQELSLRLKSCFTKDYEEHDKACVRTFYETPLQLLEKVKNVFNETKNLLDKDWNIFSKNCNNSFAECSSQDVVTKPDCNCLYPKAIPSSDPASVSPHQPLAPSMAPVAGLTWEDSEGTEGSSLLPGEQPLHTVDPGSAKQRPPRSTCQSFEPPETPVVKDSTIGGSPQPRPSVGAFNPGMEDILDSAMGTNWVPEEASGEASEIPVPQGTELSPSRPGGGSMQTEPARPSNFLSASSPLPASAKGQQPADVTGTALPRVGPVRPTGQDWNHTPQKTDHPSALLRDPPEPGSPRISSLRPQGLSNPSTLSAQPQLSRSHSSGSVLPLGELEGRRSTRDRRSPAEPEGGPASEGAARPLPRFNSVPLTDTGHERQSEGSFSPQLQESVFHLLVPSVILVLLAVGGLLFYRWRRRSHQEPQRADSPLEQPEGSPLTQDDRQVELPV
- VentX expression during monocyte to macrophage differentiation [1]: up-regulated
